Patent US7282608B2, “Inhibitors of histone deacetylase” (Methylgene, Inc., priority 2002, dated 2007)
pEC50, pIC50: −log10 of the molar value.

Assays:
Human HDAC-1 = Human HDAC-1 (Homo sapiens, UniProt Q13547); experiment: Human HDAC-1 Assay 2: Boc-Lys(Ac)-AMC fluorescence assay; assay type: biochemical; settings: Assay 2, bracketed [ ] data; Boc-Lys(Ac)-AMC substrate
Experimental: In the alternative, the following protocol was used to assay the compounds of the invention. In the assay, the buffer used was 25 mM HEPES, pH 8.0, 137 mM NaCl, 2.7 mM KCl, 1 mM MgCl2 and the subtrate was Boc-Lys(Ac)-AMC in a 50 mM stock solution in DMSO. The enzyme stock solution was 4.08 μg/mL in buffer.
The compounds were pre-incubated (2 μl in DMSO diluted to 13 μl in buffer for transfer to assay plate) with enzyme (20 μl of 4.08 μg/ml) for 10 minutes at room temperature (35 μl pre-incubation volume). The mixture was pre-incubated for 5 minutes at room temperature. The reaction was started by bringing the temperature to 37° C. and adding […] substrate. Total reaction volume was 50 μl. The reaction was stopped after 20 minutes by addition of 50 μl developer, prepared as directed by Biomol (Fluor-de-Lys developer, Cat. # KI-105). A plate was incubated in the dark for 10 minutes at room temperature before reading (λEX=360 nm, λEx=470 nm, Cutoff filter at 435 nm).
IC50 values for representative compounds assayed using this procedure are presented in the third column of Table 9 (bracketed [ ] data).

HCT116 cells = experiment: MTT assay; assay type: cell-based; settings: Homo sapiens, HCT-116, 72 hours
Experimental: HCT116 cells (2000/well) were plated into 96-well tissue culture plates one day before compound treatment. Compounds at various concentrations were added to the cells. The cells were incubated for 72 hours at 37° C. in 5% CO2 incubator. MTT (3-[4,5-dimethylthiazol-2-yl]-2,5 diphenyl tetrazolium bromide, Sigma) was added at a final concentration of 0.5 mg/ml and incubated with the cells for 4 hours before one volume of solubilization buffer (50% N,N-dimethylformamide, 20% SDS, pH 4.7) was added onto the cultured cells. After overnight incubation, solubilized dye was quantified by colorimetric reading at […] using a reference at […] using an MR700 plate reader (Dynatech Laboratories Inc.). OD values were converted to cell numbers according to a standard growth curve of the relevant cell line. The concentration which reduces cell numbers to 50% of that of solvent treated cells is determined as MTT IC50. IC50 values for representative compounds are presented in the fourth column of Tables 7–10.

[1] = tested on: acetylated histone H-4 in T24 human bladder cancer cells; experiment: Histone H4 acetylation in whole cells by immunoblots; assay type: cell-based; settings: 16 h, immunoblot densitometry, read-out: H4 Ac (T24) EC50
Experimental: T24 human bladder cancer cells growing in culture were incubated with HDAC inhibitors for 16 h. Histones were extracted from the cells after the culture period as described by M. Yoshida et al. (J. Biol. Chem. 265(28): 17174–17179 (1990)). […] of total histone protein was loaded onto SDS/PAGE and transferred to nitrocellulose membranes. Membranes were probed with polyclonal antibodies specific for acetylated histone H-4 (Upstate Biotech Inc.), followed by horse radish peroxidase conjugated secondary antibodies (Sigma). Enhanced Chemiluminescence (ECL) (Amersham) detection was performed using Kodak films (Eastman Kodak). Acetylated H-4 signal was quantified by densitometry. Representative data are presented in the fifth column of Table 7–10. Data are presented as the concentration effective for […] the acetylated H-4 signal by 50% (EC50).

[2] = target: T1, cloned recombinant human HDAC-1 (Homo sapiens, UniProt Q13547); experiment: Human HDAC-1 Assay 1: [3H]-acetylated histone deacetylase assay; assay type: biochemical; settings: Assay 1, unbracketed data; [3H]-acetylated histone substrate, 10 min at 37° C.
T1 construct: made in house; host or cells: Baculovirus insect cell expression system
Experimental: HDAC inhibitors were screened against a cloned recombinant human HDAC-1 enzyme expressed and purified from a Baculovirus insect cell expression system. For deacetylase assays, 20,000 cpm of the [^3H]-metabolically labeled acetylated histone substrate (M. Yoshida et al., J. Biol. Chem. 265(28): 17174–17179 (1990)) was incubated with 30 μg of the cloned recombinant hHDAC-1 for 10 minutes at 37° C. The reaction was stopped by adding acetic acid (0.04 M, final concentration) and HCl (250 mM, final concentration). […] For inhibition studies, the enzyme was preincubated with compounds at 4° C. for 30 minutes prior to initiation of the enzymatic assay. IC50 values for HDAC enzyme inhibitors were determined by performing dose response curves with individual compounds and determining the concentration of inhibitor producing fifty percent of the maximal inhibition. IC50 values for representative compounds assayed using this procedure are presented in the third column of Tables 7–10 (excepting bracketed data).

[3] = tested on: HCT116 human colorectal carcinoma cells; experiment: Antineoplastic effects on human tumor xenografts in vivo; parameters: species or system CD1 nude mice; settings: HCT116 xenograft, daily injection i.v., s.c. or i.p., starting dose 10 mg/kg
Experimental: Eight to ten week old female CD1 nude mice (Taconic Labs, Great Barrington, N.Y.) were injected subcutaneously in the flank area with 2×10^6 preconditioned HCT116 human colorectal carcinoma cells. Preconditioning of these cells was done by a minimum of three consecutive tumor transplantations in the same strain of nude mice. Subsequently, tumor fragments of approximately 30 mgs were excised and implanted subcutaneously in mice, in the left flank area, under Forene anesthesia (Abbott Labs, Geneva, Switzerland). When the tumors reached a mean volume of 100 mm^3, the mice were treated intravenously, subcutaneously, or intraperitoneally by daily injection, with a solution of the histone deacetylase inhibitor in an appropriate vehicle, such as PBS, DMSO/water, or Tween 80/water, at a starting dose of 10 mg/kg. The optimal dose of the HDAC inhibitor was established by dose response experiments according to standard protocols. Tumor volume was calculated every second day post infusion according to standard methods (e.g., Meyer et al., Int. J. Cancer 43: 851–856 (1989)).

Chain of Human HDAC-1 (Q13547 whole entry): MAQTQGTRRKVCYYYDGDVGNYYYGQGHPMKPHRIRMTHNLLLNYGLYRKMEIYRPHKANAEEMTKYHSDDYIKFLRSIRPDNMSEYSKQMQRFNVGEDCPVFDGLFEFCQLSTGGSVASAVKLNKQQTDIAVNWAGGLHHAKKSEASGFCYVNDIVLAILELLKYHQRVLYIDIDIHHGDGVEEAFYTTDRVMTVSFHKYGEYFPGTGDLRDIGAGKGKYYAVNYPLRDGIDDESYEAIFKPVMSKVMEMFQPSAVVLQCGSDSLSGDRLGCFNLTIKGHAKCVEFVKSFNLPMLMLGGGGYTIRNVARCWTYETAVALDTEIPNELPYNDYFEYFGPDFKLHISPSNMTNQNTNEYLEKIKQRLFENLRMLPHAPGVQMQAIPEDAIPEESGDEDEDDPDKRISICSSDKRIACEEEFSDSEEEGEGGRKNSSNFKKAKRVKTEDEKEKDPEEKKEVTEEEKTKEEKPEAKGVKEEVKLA
T1 sequence (Q13547 whole entry): as above

`Nc1ccccc1NC(=O)c1ccc(/C=C/CNC2Cc3ccccc3C2)cc1` [XXXe, N-(2-Amino-phenyl)-4-[3-(indan-2-ylamino)-propenyl]-benzamide] showed a pIC50 (Human HDAC-1) of 6.10 and a pIC50 (HCT116 cells) of 5.70.

`CN(C/C=C/c1ccc(C(=O)Nc2ccccc2N)cc1)Cc1ccccc1` [XXXd, N-(2-Amino-phenyl)-4-[3-(benzyl-methyl-amino)-propenyl]-benzamide] gave a pIC50 (Human HDAC-1) of 6.77 and a pIC50 (HCT116 cells) of 5.70.

Molecule `Nc1ccccc1NC(=O)c1ccc(/C=C/CN2Cc3ccccc3C2)cc1` [XXXa, N-(2-Amino-phenyl)-4-[3-(1,3-dihydro-isoindol-2-yl)-propenyl]-benzamide] has a pIC50 (Human HDAC-1) of 6.59, a pEC50 [1] of 5.40 and a pIC50 (HCT116 cells) of 6.00.

For `Nc1ccccc1NC(=O)c1ccc(/C=C/CNc2nccc(-c3cccnc3)n2)cc1` [XVj, N-(2-Amino-phenyl)-4-[3-(4-pyridin-3-yl-pyrimidin-2-ylamino)-propenyl]-benzamide], the pIC50 [2] was 5.70, the “reduction in tumor weight and volume relative to vehicle controls” value [3] was “significant reduction in tumor weight and volume” and the pEC50 [1] was greater than 6.00. It also gave a pIC50 (HCT116 cells) of 6.70.

In the case of `Nc1ccccc1NC(=O)c1ccc(/C=C/CN2CCN(c3ccccn3)CC2)cc1` [XXXc, N-(2-Amino-phenyl)-4-[3-(4-pyridin-2-yl-piperazin-1-yl)-propenyl]-benzamide], the pIC50 (Human HDAC-1) was 6.09, the pEC50 [1] was 5.70 and the pIC50 (HCT116 cells) was 6.30.
